In US4313943A, “7-Chloro-2,3-dihydro-5-phenyl-1-propargyl-1H-1,4-benzodiazepine-2-one, and a pharmaceutical composition thereof” (priority 1972, dated 1982):
Values joined by “and” are separate entries in the source; they are usually repeats but may differ in a detail not shown here. Equal entries are not always repeated. “Also recorded” adds a separate entry of the source.

Columns and labels:
[1] = Conditioned avoidance response (shuttle box); assay type: in vivo; conditions: for Number of Conditioned Avoidance Responses: CMC 1% 16.7 ± 0.3
Experimental: Conditioned avoidance response by trained animals in a conventional shuttle box procedure was determined after oral administration of Compounds 1 and 4.

[2] = Hypnotic activity comparison (Janssen 1959); assay type: in vivo
Experimental: Toxicity in test animals to the test compounds in terms of LD50 after oral and intraperitoneal administration was determined according to the procedure of Litchfield and Wilcoxan (1949) and the hypnotic effect on test animals was determined in accordance with the method of Janssen (1959).

[3] = Emotional conditioning response (CER) in rats (Brady, Skinner box); assay type: in vivo
From the text: The method utilized that was published by Brady (1956) using a Skinner Box and a combination of a sound, a light and an electrical shock to produce anxiety in the test animals.
The more an animal is anxious, the less important is the score. When a test compound is a powerful anxiolytic, the value of the score is proportional to the dosage.

[4] = Reduction in motor activity between 60 and 90 minutes; assay type: in vivo; conditions: for Reduction in Motor Activity Between 60 and 90 Minutes: significance NS (comp. 1), 0.002 (comp. 4)
[5] = Spontaneous mobility (Svenson and Thieme); assay type: in vivo
Experimental: Spontaneous mobility in test animals was determined by the Svenson and Thieme procedure as published in Psychopharmacologia, Vol. 14, 1969, pages 157 et seq.

[6] = Acute toxicity in the mouse (oral); conditions: in vivo, mouse (male)
Experimental: The test compounds shown in Table 2 were administered orally to male mice and rats in the form of a suspension in a 1% solution of sodium carboxymethyl cellulose. The LD50 (lethal dose 50%) was calculated by the method of Litchfield and Wilcoxon.

[7] = Effect on muscular relaxation in mice (30° inclined screen, Randall); assay type: in vivo
Experimental: The method utilized was the procedure described by Randall (1961) using a 30° inclined screen.

[8] = Anti-convulsant activity in the mouse (convulsions induced by 1,5-pentamethylenetetrazole); assay type: in vivo; conditions: 30 min before pentamethylenetetrazole s.c.
Experimental: The inhibition of convulsions induced by 1,5-pentamethylenetetrazole was tested by the Clen method. The test compounds were administered orally to the mice, in the doses shown in Table 3, in the form of suspensions in 1% sodium carboxymethyl cellulose solution, and 30 minutes later the test animals were injected subcutaneously with […] of 1,5-pentamethylenetetrazole. The number of mice protected from lethal extensorial tonic spasms, per group of 10 test animals, was recorded.

[9] = Potentiation of narcosis (hexobarbitone sodium) in the mouse, Winter method; assay type: in vivo; conditions: hexobarbitone sodium 80 mg/kg i.p., control 33.3
Experimental: The Winter method was used, in which a state of narcosis is induced by the intraperitoneal administration of 80 mg/kg of hexobarbitone sodium, and is assessed by the loss of the righting reflex in the test animal. […] orally to the animals, in doses shown in Table 4, as suspensions in 1% sodium carboxymethyl cellulose solution; and the prolongation of narcosis in the animals thus treated was observed, by comparison with controls which received only the hexobarbitone administration.

[10] = Aggressive behavior elicited by foot shock; assay type: in vivo; conditions: oral
From the text: The aggressive behavior of test animals was elicited by a conventional foot shock procedure after administration of Compounds 1 and 4.

[11] = test system: posterior amygdaloid complex; test: Amygdaloid after-discharge (stimulation of posterior amygdaloid complex); assay type: in vivo; conditions: 7.5 mg/kg intragastric; for Duration of Amygdaloid After-Discharge: individual animals
Experimental: The test animals for this study were also prepared according to the technique described by Monnier and Gangloff (infra B, page 30) and the animals were kept in restraint cages in a relatively soundproof room.
The activity of test compounds 1 and 4 was assessed in identical groups of test animals for each compound, with identical numbers of animals for hippocampal after-discharges and for amygdaloid after-discharges. A dose of 7.5 mg/kg of each test compound was adminstered by the intragastric route. In each animal, after-discharges were triggered every 45 minutes after the administration of a test compound.
The stimulation consisted of a series of waves with a duration of 3 m sec., delivered at a frequency of 40 c/sec., with 5 seconds as the total duration of the stimulation. The shocks were delivered by a Neurovar neurostimulator (Alvar Electronic), coupled to a CRC cathode oscilloscope (type OC 343). Cerebral electric activity was recorded by REEGA MINI HUIT electroencephalograph (Alvar Electronic).

[12] = Motor coordination in the rat (Rota-rod method, Dunham and Miya); assay type: in vivo
Experimental: The method of Dunham and Miya was used, which consists in placing the test animal on a rod rotating at 14 r.p.m., and recording the percentage of animals which fall off within 2 minutes. The test compound 1 was administered orally to the animals, in the various doses shown in Table 1, as a suspension in 1% sodium carboxymethyl cellulose solution. The animals were then tested 30 minutes and 60 minutes after the administration of the test compound.

[13] = Myorelaxant activity in the mouse (traction test); assay type: in vivo
Experimental: This was determined by the traction test of Joulon Courvoisier, following Boissier and Simon, in which the mouse is suspended by its front paws to a horizontal metal wire, and the animal's capacity to get up with its hind paws is observed. The test compounds were administered orally to the animals, in the doses shown in Table 5, as suspensions in 1% sodium carboxymethyl cellulose solution; and the animals were tested 30 minutes and 180 minutes after administration. The test animals were deemed to be myorelaxant if unable to get up within 5 seconds.

Structure (SMILES): C#CCN1C(=O)CN=C(c2ccccc2)c2cc(Cl)ccc21 [Compound 1, 7-chloro-2,3-dihydro-5-phenyl-1-propargyl-1H-1,4-benzodiazepin-2-one]
- % Decrease (conditioned avoidance responses) ([1]; 5 mg/kg oral): -12%
- Number of Conditioned Avoidance Responses ([1]; 5 mg/kg oral): 14.5 ± 0.7
- % Decrease (conditioned avoidance responses) ([1]; 10 mg/kg oral): -19%
- Number of Conditioned Avoidance Responses ([1]; 10 mg/kg oral): 13.4 ± 0.7
- % Decrease (conditioned avoidance responses) ([1]; 20 mg/kg oral): -17%
- Number of Conditioned Avoidance Responses ([1]; 20 mg/kg oral): 13.7 ± 0.9
- % Decrease (conditioned avoidance responses) ([1]; 40 mg/kg oral): -44%
- Number of Conditioned Avoidance Responses ([1]; 40 mg/kg oral): 9.3 ± 1.5
- activity in reducing conditioned avoidance responses compared with Compound 2 ([1]; in vivo): less active than Compound 2
- ED50 ([2]; Table 11, species not given): 857 mg/kg
- hypnotic activity compared with Compounds 3 or 4 ([2]; in vivo): lower hypnotic activity
- Number of Responses, After - CER ([3]; 1.25 mg/kg/os): 77.83 ± 20.41
- Number of Responses, Before - CER ([3]; 1.25 mg/kg/os): 94.67 ± 13.86
- Number of Responses, CER ([3]; 1.25 mg/kg/os): 27.50 ± 11.32
- Number of Responses, After - CER ([3]; 2.5 mg/kg/os): 112.30 ± 17.56
- Number of Responses, Before - CER ([3]; 2.5 mg/kg/os): 142.10 ± 20.03
- Number of Responses, CER ([3]; 2.5 mg/kg/os): 62.10 ± 9.59
- Number of Responses, After - CER ([3]; 5 mg/kg/os): 128.75 ± 17.13
- Number of Responses, Before - CER ([3]; 5 mg/kg/os): 127.13 ± 20.89
- Number of Responses, CER ([3]; 5 mg/kg/os): 63.50 ± 14.96
- activity in antagonizing CER compared with Compound 3 ([3]; rat, in vivo): about twice as active as Compound 3
- effectiveness in reducing anxiety compared with Composition 4 ([3]; rat, in vivo): twice as effective in reducing anxiety as Composition 4
- Reduction in Motor Activity Between 60 and 90 Minutes ([4]; 1 mg/kg): +19%
- Reduction in Motor Activity Between 60 and 90 Minutes ([4]; 3 mg/kg): -20%
- changes in motor activity / voluntary motility ([4]; in vivo): does not produce changes in motor activity
- activity in depressing spontaneous mobility compared with Compound 4 ([5]; in vivo): approximately three times less active than Compound 4
- ED50 ([5]; po, read-out: oral ED50 (depressing spontaneous mobility)): 76.6 mg/kg
- LD50 [6]: 1300 mg/kg
- % Relaxed Animals ([7]; 5 mg/kg/os): 10%
- % Relaxed Animals ([7]; 10 mg/kg/os): 20%
- % Relaxed Animals ([7]; 20 mg/kg/os): 50%
- % Relaxed Animals ([7]; 40 mg/kg/os): 70%
- ED50 ([7]; Mus musculus, po, muscular relaxation, read-out: ED50 (and C.L.)): 21.5 mg/kg
- times less relaxant than compound 3 ([7]; mouse, in vivo): about 1.5 times
- times less relaxant than compound 4 ([7]; mouse, in vivo): about 5.6 times
- No. of Animals Protected ([8]; 0.5 mg/kg oral): 0/10
- No. of Animals Protected ([8]; 1.0 mg/kg oral): 5/10
- No. of Animals Protected ([8]; 2.0 mg/kg oral): 9/10
- Duration of narcosis ([9]; 1.0 mg/kg oral): 70.7 min
- Duration of narcosis ([9]; 2.0 mg/kg oral): 111.3 min
- ED50 [10]: 3.3 mg/kg
- effect on amygdaloid after-discharge [11]: lasting inhibitory effect; also recorded: slightly more pronounced
- Duration of Amygdaloid After-Discharge ([11]; 45 Mins.): 15 s and 0 s and 35 s and 22 s
- Duration of Amygdaloid After-Discharge ([11]; 90 Mins.): 17 s and 0 s and 27 s
- Duration of Amygdaloid After-Discharge ([11]; 135 Mins.): 46 s and 0 s and 37 s
- Duration of Amygdaloid After-Discharge ([11]; 180 Mins.): 17 s and 0 s and 34 s
- Duration of Amygdaloid After-Discharge ([11]; 225 Mins.): 42 s and 46 s and 0 s and 35 s
- Duration of Amygdaloid After-Discharge ([11]; 270 Mins.): 45 s and 62 s and 0 s and 30 s
- Percentage of animals falling within 2 minutes ([12]; 3 mg/kg oral, 30 minutes after administration): 0%
- Percentage of animals falling within 2 minutes ([12]; 3 mg/kg oral, 60 minutes after administration): 0%
- Percentage of animals falling within 2 minutes ([12]; 6 mg/kg oral, 30 minutes after administration): 50%
- Percentage of animals falling within 2 minutes ([12]; 6 mg/kg oral, 60 minutes after administration): 17%
- Percentage of animals falling within 2 minutes ([12]; 12 mg/kg oral, 30 minutes after administration): 100%
- Percentage of animals falling within 2 minutes ([12]; 12 mg/kg oral, 60 minutes after administration): 50%
- Percentage of myorelaxant animals ([13]; 1.5 mg/kg oral, after 30 minutes): 20%
- Percentage of myorelaxant animals ([13]; 1.5 mg/kg oral, after 180 minutes): 15%
- Percentage of myorelaxant animals ([13]; 3.0 mg/kg oral, after 30 minutes): 60%
- Percentage of myorelaxant animals ([13]; 3.0 mg/kg oral, after 180 minutes): 55%
- Percentage of myorelaxant animals ([13]; 6.0 mg/kg oral, after 30 minutes): 80%
- Percentage of myorelaxant animals ([13]; 6.0 mg/kg oral, after 180 minutes): 70%
